Publication PMC4760439, “Glicentin‐related pancreatic polypeptide inhibits glucose‐stimulated insulin secretion from the isolated pancreas of adult male rats” (Physiological Reports, 2015)
“Also recorded” adds a separate entry of the source.

Columns and labels:
perfused rat liver = test: Isolated perfused rat liver: glucose output, lactate output, portal pressure; parameters: species or system Male Sprague‐Dawley rat; conditions: for Lactate output (effect of peptide vs control) / Portal pressure (effect of peptide vs control) / Glucose output, epinephrine‐stimulated (effect of peptide vs control): 2.3 or 230 pmol g^−1 min^−1 (n = 5 and n = 3), epinephrine 100 pmol g^−1 min^−1, 30–60 min; for Glucose output, epinephrine‐stimulated (effect of peptide vs control): 37°C
Description: (§1) All studies were performed under approval of the University of Auckland Animal Ethics Committee and were consistent with the ARRIVE guidelines (Kilkenny et al. 2012). Male Sprague‐Dawley rats (220–300 g) were obtained from a breeding colony in the Integrated Physiology Unit, School of Biological Sciences at the University of Auckland. Animals were housed in standard environmental conditions under a 12‐hour light/dark cycle and a temperature of 20 ± 1°C. They were maintained on Teklad TB 2018 (Harlan, UK) rat chow and tap water ad libitum.
Under general anesthesia (isoflurane 2–5%; 2 L min^−1 O2 via nasal cone), nonfasted rats underwent laparotomy between 8:00 and 9:00 AM on the experimental day. The liver was removed and quickly connected to a custom‐made, temperature‐controlled, organ perfusion system, whereby it was perfused (in nonrecirculating mode) in a manner similar to that reported previously (Englisch et al. 2000; Whiting et al. 2013). Livers were perfused at a rate of 2 mL g^−1 min^−1 with perfusion media containing final concentrations (in mmol L^−1): NaCl, 128; NaHCO3, 23.9; KCl, 6.0; CaCl2, 2.4; MgSO4, 1.18; D‐glucose, 5; 3‐(‐N‐morpholino)propane sulfonate, 1.29; with fatty‐acid‐free BSA, 0.5% (w/v) at pH 7.4 gassed with O2:CO2 95:5% (v/v) at 37°C. Each liver was stabilized for 40 min: thereafter, hormone‐containing solutions or vehicle (buffer only) was delivered via a side‐arm infusion. Hormones were also investigated with regard to their ability to attenuate epinephrine‐stimulated hepatic glucose output (Epinephrine, Sigma‐Aldrich, St. Louis, MO). Epinephrine was added 30 min after the addition of hormones was commenced.
(§2) Measurement of organ perfusion parameters
(§3) Glucose and lactate concentrations were measured in both organ preparations using a YSI2300 Stat glucose and lactate analyzer (Yellow Springs, Ohio). Portal pressure was measured in isolated‐perfused liver preparations in mmH2O via a T‐tube located 10 cm upstream from the preparation.
(§4) Maximum pancreatic first‐phase insulin secretion in the presence of hormone infusion was contrasted with corresponding control values by unpaired Welch's t‐tests for preplanned comparisons, to allow for unequal variance between groups. Linear mixed‐effects models were fitted by restricted maximum likelihood (LME‐REML) to data obtained from each indicated phase of isolated perfused–organs studies, using S‐PLUS version 8.2 (TIBCO, Spotfire). Calculated P‐values <0.05 are presented in the article and reflect the likelihood ratio between two models, the effect in question (treatment, time, or treatment:time) against the model without the effect in question. Insulin secreted from isolated islets was expressed as a percentage of insulin content and compared using one‐way ANOVA (GraphPad Prism version 6.0: GraphPad Software Inc., San Diego, CA). Cyclic AMP data have been normalized to the response obtained to forskolin and fitted to obtain concentration–response curves using a three‐parameter logistic equation (GraphPad Prism version 6.0: GraphPad Software Inc., San Diego, CA): pEC50 values were obtained from the concentration–response curves and compared using one‐way ANOVA. All data are presented as mean ± SEM of three to four independent experiments.
Figure 2 Effect of rGRPP and rGRPP‐LP on glucose output, lactate output, and portal pressure in the isolated perfused rat liver. Livers from Sprague‐Dawley rats were isolated and perfused with rGRPP (left panels: 2.3 or 230 pmol g^−1 min^−1, n = 5 and n = 3, respectively), rGRPP‐LP (right panels: 2.3 or 230 pmol g^−1 min^−1, n = 5 and n = 3), or vehicle (all panels: control, n = 5). Livers were perfused with hormones or vehicle from 0 to 60 min with 0–30 min as the basal period.

[1] = test system: isolated perfused rat pancreas; test: Isolated perfused rat pancreas: insulin secretion (GSIS), lactate; parameters: species or system Male Sprague‐Dawley rat; conditions: for Insulin secretion at 5 mmol L^−1 glucose (vs control): first 20 min; for Insulin secretion at 5 mmol L^−1 glucose (vs control) / Glucose‐stimulated insulin secretion (GSIS) at 20 mmol L^−1 glucose (vs control): rGRPP and rGRPP‐LP 3 or 30 pmol min^−1, hGLP‐1 7–36 30 pmol min^−1, n = 5/group, insulin by ELISA, 37°C; for Glucose‐stimulated insulin secretion (GSIS) at 20 mmol L^−1 glucose (vs control): 20–40 min; for Glucose‐stimulated insulin secretion (GSIS) at 20 mmol L^−1 glucose (vs control) / First phase of GSIS (vs control) / Second phase of GSIS (vs control): 20 mmol L^−1 glucose; for First phase of GSIS (vs control): t = 22 min; for Second phase of GSIS (vs control): t = 26 min to t = 40
Description: as §1
Isolated pancreas perfusion
General aspects of the preparation for the isolated pancreas perfusions were the same as those for the liver perfusion studies (above). Particular aspects of the preparation for the pancreas perfusion studies were as follows. After laparotomy, the pancreas and duodenum were removed en bloc and perfused (in nonrecirculating mode) consistent with our previous report (Buchanan et al. 2001). Each pancreatic preparation was quickly connected to the custom‐made, temperature‐controlled, organ perfusion system and perfused at 3 mL min^−1 with oxygenated perfusion buffer (containing at final concentrations in mmol L^−1): NaCl, 112; NaHCO3, 29.3; KCl, 4.4; CaCl2, 2.4; MgSO4, 1.2; D‐glucose, 5.0; with BSA, 0.5% (w/v), Dextran 4% (w/v) at pH 7.4 gassed with O2:CO2 95:5% (v/v) at 37°C. […] Each pancreas was stabilized for 30 min before hormones or vehicle (buffer only) was delivered via a side‐arm infusion.
as §2, §3, §4
Figure 3 Effects of proglucagon products on insulin secretion in the isolated‐perfused rat pancreas.

[2] = target: T1, human glucagon receptor (hGL‐R) (Homo sapiens, UniProt P47871); test: cAMP stimulation in transfected Cos 7 cells, hGL‐R; type: cell-based; conditions: Cos 7, 37°C, 10 min, ALPHA‐screen
T1 construct: expressed in transfected cells; host or cells: Cos 7 cells
Description: (§5) Transfection of Cos 7 cells
(§6) Cos 7 cells were maintained and subcultured as previously described (Bailey and Hay 2006) and plated at a density of 15,000 cells per well into 96‐well plates 1 day prior to transfection. […] Cyclic AMP assays were performed 48 h after transfection (Bailey and Hay 2006). The human GRPP was obtained from Bachem (Bubendorf, Switzerland).
(§7) Cyclic AMP stimulation of transfected Cos 7 cells
(§8) Transfected cells were serum‐deprived in DMEM containing 1 mmol L^−1 IBMX and 0.1% (w/v) bovine serum albumin (BSA) for 30 min. […] Plates were incubated at 37°C for 10 min. […] Media were then aspirated from the wells and reactions terminated by addition of ice‐cold absolute ethanol. Ethanol was then evaporated to dryness and cell extracts re‐suspended in 45 μL cAMP assay buffer: cAMP concentrations were determined using ALPHA‐screen assay kits (Perkin Elmer, Massachusetts) as previously described (Gingell et al. 2010).
as §4, with “Cyclic AMP data have been normalized to the response obtained to forskolin and fitted to obtain concentration–response curves using a three‐parameter logistic equation (GraphPad Prism version 6.0: GraphPad Software Inc., San Diego, CA): pEC50 values were obtained from the concentration–response curves and compared using one‐way ANOVA. All data are presented as mean ± SEM of three to four independent experiments.” left out

[3] = target: T2, human GLP‐1 receptor (hGLP‐1R) (Homo sapiens, UniProt P43220); test: cAMP stimulation in transfected Cos 7 cells, hGLP‐1R; type: cell-based; conditions: Cos 7, 37°C, 10 min, ALPHA‐screen
T2 construct: expressed in transfected cells; host or cells: Cos 7 cells
Description: as §5, §6, §7, §8
(§9) Maximum pancreatic first‐phase insulin secretion in the presence of hormone infusion was contrasted with corresponding control values by unpaired Welch's t‐tests for preplanned comparisons, to allow for unequal variance between groups. […] Calculated P‐values <0.05 are presented in the article and reflect the likelihood ratio between two models, the effect in question (treatment, time, or treatment:time) against the model without the effect in question. […]

[4] = target: T1, human glucagon receptor (hGL‐R); test: Antagonism of glucagon‐stimulated cAMP production, hGL‐R; type: cell-based; conditions: peptide preincubated 5 min
Description: as §5, §6, §7, §8, §9

[5] = target: T2, human GLP‐1 receptor (hGLP‐1R); test: Antagonism of GLP‐1 7–36‐stimulated cAMP production, hGLP‐1R; type: cell-based; conditions: peptide preincubated 5 min
Description: as §5, §6, §7, §8, §9

canine pancreas = conditions: cited from earlier work
Text: However, we know of only one study reporting the effects of GRPP on GSIS. […] The precise experimental conditions such as amount of glucose and experimental model used may have influences on the different outcomes; however, the reason for the opposing actions of GRPP between these ...

[6] = 100 pmol g^−1 min^−1, 30–60 min, all groups

T1 sequence (P47871 26-477): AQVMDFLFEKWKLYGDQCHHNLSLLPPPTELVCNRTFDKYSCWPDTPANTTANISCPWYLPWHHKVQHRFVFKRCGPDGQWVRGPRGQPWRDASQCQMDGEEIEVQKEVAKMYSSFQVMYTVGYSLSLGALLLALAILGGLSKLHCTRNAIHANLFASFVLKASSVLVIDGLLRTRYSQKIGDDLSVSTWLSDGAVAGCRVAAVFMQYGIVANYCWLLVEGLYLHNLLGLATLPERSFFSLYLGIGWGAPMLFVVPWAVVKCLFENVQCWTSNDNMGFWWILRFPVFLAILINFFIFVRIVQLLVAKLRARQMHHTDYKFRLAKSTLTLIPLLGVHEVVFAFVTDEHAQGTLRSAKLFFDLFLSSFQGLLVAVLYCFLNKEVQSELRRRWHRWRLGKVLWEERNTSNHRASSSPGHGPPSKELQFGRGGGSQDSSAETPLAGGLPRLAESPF
T2 sequence (P43220 24-463): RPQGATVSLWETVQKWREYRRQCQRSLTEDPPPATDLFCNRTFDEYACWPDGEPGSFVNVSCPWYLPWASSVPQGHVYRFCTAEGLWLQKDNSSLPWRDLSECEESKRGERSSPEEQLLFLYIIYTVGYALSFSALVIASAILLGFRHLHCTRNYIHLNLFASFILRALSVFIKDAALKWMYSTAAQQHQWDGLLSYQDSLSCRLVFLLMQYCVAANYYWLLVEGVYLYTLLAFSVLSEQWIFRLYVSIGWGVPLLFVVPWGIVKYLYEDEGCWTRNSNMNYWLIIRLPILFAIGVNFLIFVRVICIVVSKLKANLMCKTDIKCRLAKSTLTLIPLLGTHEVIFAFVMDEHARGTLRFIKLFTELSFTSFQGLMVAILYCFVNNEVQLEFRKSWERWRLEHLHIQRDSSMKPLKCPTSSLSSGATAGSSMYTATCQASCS

| Compound | Insulin secretion at 5 mmol L^−1 glucose (vs control) [1] | Glucose‐stimulated insulin secretion (GSIS) at 20 mmol L^−1 glucose (vs control) [1] | First phase of GSIS (vs control) [1] | Second phase of GSIS (vs control) [1] | Stimulation of cAMP production at hGL‐R [2] | Stimulation of cAMP production at hGLP‐1R [3] | Lactate output (effect of peptide vs control) (perfused rat liver) | Portal pressure (effect of peptide vs control) (perfused rat liver) | Glucose output, epinephrine‐stimulated (effect of peptide vs control) (perfused rat liver) | Antagonism of glucagon‐stimulated cAMP production [4] | Antagonism of GLP‐1‐stimulated cAMP production [5] | further results |
| --- | --- | --- | --- | --- | --- | --- | --- | --- | --- | --- | --- | --- |
| CNC[C@H](O)c1ccc(O)c(O)c1 [epinephrine, reference compound] | – | – | – | – | – | – | – | – | – | – | – | Glucose output, effect of epinephrine (perfused rat liver; [6]): evoked an increase in glucose output in all groups; Lactate release, effect of epinephrine (perfused rat liver; [6]): expected elevation of lactate release; Portal pressure, effect of epinephrine (perfused rat liver; [6]): expected elevation of lactate release and portal pressure |
| HAPQDTEENARSFPASQTEPLEDPDQINED [rGRPP, rat glicentin‐related pancreatic polypeptide, 30 amino acid Gcg‐derived peptide, synthesized by Fmoc solid‐phase peptide synthesis] | No significant difference in insulin secretion | potent inhibition of glucose‐stimulated insulin secretion (GSIS) from the rat pancreas; also recorded: inhibited GSIS | inhibited the initial first phase of GSIS in the isolated rat pancreas | ongoing suppression of insulin secretion throughout the second phase | neither rGRPP nor rGRPP‐LP stimulated cAMP production at either receptor | neither rGRPP nor rGRPP‐LP stimulated cAMP production at either receptor | Neither dose of rGRPP nor rGRPP‐LP modified these parameters compared with control values | Neither dose of rGRPP nor rGRPP‐LP modified these parameters compared with control values | not modified by rGRPP or GRPP‐LP; also recorded: Neither dose of rGRPP nor rGRPP‐LP modified these parameters compared with control values | nor did they antagonize glucagon‐ or GLP‐1‐stimulated cAMP‐production at either receptor; also recorded: no shifts in the GLP‐1 7–36 or glucagon concentration–response curves | nor did they antagonize glucagon‐ or GLP‐1‐stimulated cAMP‐production at either receptor; also recorded: no shifts in the GLP‐1 7–36 or glucagon concentration–response curves | – |
| HAPQDTEENARSFPASQTEPLEDPNQINE [rGRPP‐LP, rat GRPP‐like peptide] | No significant difference in insulin secretion | potent inhibition of glucose‐stimulated insulin secretion (GSIS) from the rat pancreas; also recorded: inhibited GSIS | inhibited the initial first phase of GSIS in the isolated rat pancreas | ongoing suppression of insulin secretion throughout the second phase | neither rGRPP nor rGRPP‐LP stimulated cAMP production at either receptor | neither rGRPP nor rGRPP‐LP stimulated cAMP production at either receptor | Neither dose of rGRPP nor rGRPP‐LP modified these parameters compared with control values | Neither dose of rGRPP nor rGRPP‐LP modified these parameters compared with control values | Neither dose of rGRPP nor rGRPP‐LP modified these parameters compared with control values | nor did they antagonize glucagon‐ or GLP‐1‐stimulated cAMP‐production at either receptor | nor did they antagonize glucagon‐ or GLP‐1‐stimulated cAMP‐production at either receptor | Glucose output, epinephrine‐stimulated (effect of peptide vs control) (perfused rat liver; listed as GRPP‐LP): not modified by rGRPP or GRPP‐LP |
| human glicentin 1–16: human glicentin 1–16, literature peptide (RSLQDTEEKSRSFSAS; Glicentin; UniProt P01275 21-36, looked up, fragment) | – | – | – | – | – | – | – | – | – | – | – | Plasma insulin and glucagon, canine pancreas (canine pancreas; local circulation preparation of the canine pancreas, ref Ohneda and Ohneda 1988): slight increases in plasma insulin and decreases in plasma glucagon |
| human glicentin 12–69: encompasses both GRPP and glucagon sequences (SFSASQADPLSDPDQMNEDKRHSQGTFTSDYSKYLDSRRAQDFVQWLMNTKRNRNNIA; Glicentin; UniProt P01275 32-89, looked up, fragment) | – | – | – | – | – | – | – | – | – | – | – | GSIS and glucagon secretion, perfused canine pancreas (canine pancreas; ref Yanaihara et al. 1985): enhanced GSIS and inhibited glucagon secretion in the perfused canine pancreas |
| porcine GRPP: porcine GRPP, literature peptide (RSLQNTEEKSRSFPAPQTDPLDDPDQMTED; Glicentin-related polypeptide; UniProt P01274 21-50, looked up) | – | – | – | – | – | – | – | – | – | – | – | Insulin and glucagon secretion, canine pancreas (canine pancreas; ref Ohneda and Ohneda 1988): insulin was possibly increased and glucagon decreased |
